Like-named read-outs stand apart in the source and are kept apart here. Non-standard residues stand in square brackets, D forms with d. Residues, ends and D or L forms follow the SMILES beside them. *: point of attachment. Dolaproine = CO[C@@H]([C@@H]1CCCN1)[C@@H](C)C(=O)O; Dil = CC[C@H](C)[C@H](NC)[C@@H](CC(=O)O)OC; X1 = C[C@@H](N*)[C@@H](O)c1ccccc1; NMeV = CN[C@H](C(=O)O)C(C)C
Assays:
NCI-H1975 cells = assay: In vitro cytotoxicity assay in tumor lines (CellTiter-Glo 2.0), NCI-H1975; type: cell-based, human; details: six days; for IC50: concentrations corrected for DAR
Protocol: (§1) To test the ability of anti-HER2 or anti-STEAP2 antibody drug conjugates (ADCs) of the present disclosure to kill human cell lines, an in vitro cytotoxicity assay was performed. In vitro cytotoxicity of the ADCs, isotype control ADCs, and reference free payloads were evaluated using the CellTiter-Glo 2.0 Assay Kit (Promega, Cat #g9243), in which the quantity of ATP present is used to determine the number of viable cells in culture.
(§2) For the assay, Calu-3, SK-BR-3, NCI-H1975, C42, or C42/STEAP2 KO (knockout) cells were seeded at 1000 cells/well in poly-D-lysine coated white 96 well Biocoat plates (Corning #356693) in complete growth medium and grown overnight at 37° C. in 5% CO2. Three-fold serial dilutions of anti-HER2 ADCs or isotype control ADCs were prepared in dilution media (Optimem+0.1% BSA) and added to cells at final concentrations ranging from 100 nM to 0.015 nM (concentrations were corrected for the DAR (drug antibody ratio) and dosed based on the effective payload concentration). Three-fold serial dilutions of free payloads were prepared in 100% DMSO, transferred to fresh dilution media, and then added to the cells at a final constant DMSO concentration of 0.2% and final payload concentrations ranging from 100 nM to 0.015 nM. The last well in each dilution series (untreated wells) served as blank controls containing only the media (ADCs) or media plus 0.2% DMSO (payloads) and was plotted as a continuation of the 3-fold serial dilution. Six days later, 100 μL of CellTiter glo 2.0 was added to each well, plates were mixed for 2 minutes on an orbital shaker, and plates were incubated at room temperature for 10 minutes. Relative light units (RLUs) were measured on an Envision luminometer (PerkinElmer), and cell viability was expressed as a percentage of the untreated (100% viable) cells. IC50 values were determined using a four-parameter logistic equation over a 10-point dose response curve (GraphPad Prism). The maximum % kill was also determined for each test article as follows: 100—minimum percent viability.

Calu-3 cells = type: cell-based, human; details: Table 27 (second experiment), six days
Protocol: as §1, §2

SK-BR-3 cells = type: cell-based, human; details: six days; for IC50: concentrations corrected for DAR
Protocol: as §1, §2

C4-2/STEAP2 KO cells = assay: In vitro cytotoxicity assay in tumor lines (CellTiter-Glo 2.0), C4-2/STEAP2 KO; type: cell-based, human
Protocol: The last well in each dilution series (untreated wells) served as blank controls containing only the media (ADCs) or media plus 0.2% DMSO (payloads) and was plotted as a continuation of the 3-fold serial dilution. […] Relative light units (RLUs) were measured on an Envision luminometer (PerkinElmer), and cell viability was expressed as a percentage of the untreated (100% viable) cells. IC50 values were determined using a four-parameter logistic equation over a 10-point dose response curve (GraphPad Prism).

[1] = tested on: SK-BR-3, Calu-3 and NCI-H1975 cells; assay: In vitro cytotoxicity assay, statements pooled over several tested lines (SK-BR-3, Calu-3, NCI-H1975); type: cell-based, human; details: all tested cells; units printed with the values (pM, nM)
Protocol: as §1
For the assay, Calu-3, SK-BR-3, NCI-H1975, C42, or C42/STEAP2 KO (knockout) cells were seeded at 1000 cells/well in poly-D-lysine coated white 96 well Biocoat plates (Corning #356693) in complete growth medium and grown overnight at 37° C. in 5% CO2. Three-fold serial dilutions of anti-HER2 ADCs or isotype control ADCs were prepared in dilution media (Optimem+0.1% BSA) and added to cells at final concentrations ranging from 100 nM to 0.015 nM (concentrations were corrected for the DAR (drug antibody ratio) and dosed based on the effective payload concentration). […] Relative light units (RLUs) were measured on an Envision luminometer (PerkinElmer), and cell viability was expressed as a percentage of the untreated (100% viable) cells. IC50 values were determined using a four-parameter logistic equation over a 10-point dose response curve (GraphPad Prism). The maximum % kill was also determined for each test article as follows: 100—minimum percent viability.

C4-2 cells = assay: In vitro cytotoxicity assay in tumor lines (CellTiter-Glo 2.0), C4-2; type: cell-based, human
Protocol: as §1, §2

HCT-15 = assay: cells; type: cell-based
[2] = Homo sapiens, HCT-15, read-out: IC50 (nM) +v
[3] = Homo sapiens, HCT-15, read-out: IC50 (nM) −v

`CC[C@@]1(O)C(=O)OCc2c1cc1n(c2=O)Cc2c-1nc1cc(F)c(C)c3c1c2[C@@H](NC(=O)CO)CC3` [Dxd] was tested, and the “NCI-H1975 Max % Kill” value (NCI-H1975 cells; Table 26 (first experiment)) was 95.9%, the IC50 (NCI-H1975 cells; Table 26 (first experiment)) was 8.91 nM and the “NCI-H1975 Max % Kill” value (NCI-H1975 cells; Table 27 (second experiment)) was 96.1%. For the same molecule, the IC50 (NCI-H1975 cells; Table 27 (second experiment)) was 11.8 nM, the “Calu-3 Max % Kill” value (Calu-3 cells) was 96.3% and the IC50 (Calu-3 cells; concentrations corrected for DAR) was 2.14 nM. The “SK-BR-3 Max % Kill” value (SK-BR-3 cells; Table 26 (first experiment)) was 97.1%, the IC50 (SK-BR-3 cells; Table 26 (first experiment)) was 0.787 nM and the “SK-BR-3 Max % Kill” value (SK-BR-3 cells; Table 27 (second experiment)) was 98.2%. For the same molecule, the IC50 (SK-BR-3 cells; Table 27 (second experiment)) was 1.56 nM, the IC50 (C4-2/STEAP2 KO cells; C4-2/STEAP2 KO cells, 6 days) was 3.43 nM and the “C4-2/STEAP2 KO Max % Kill” value (C4-2/STEAP2 KO cells; Table 28, six days) was 88.9%. For the same molecule, the IC50 [1] was 787 to 11800 pM, the IC50 (C4-2 cells; C4-2 cells, 6 days) was 2.54 nM and the maximum % kill (C4-2 cells; C4-2 cells, 6 days) was 81.7%. The “C4-2 Max % Kill” value (C4-2 cells; Table 28, six days) was 81.7%.
`CC[C@H](C)[C@@H]([C@@H](CC(=O)N1CCC[C@H]1[C@H](OC)[C@@H](C)C(=O)N[C@H](C)[C@@H](O)c1ccccc1)OC)N(C)C(=O)[C@@H](NC(=O)[C@@H](NC)C(C)C)C(C)C` [MMAE] (H-[NMeV]V[Dil][Dolaproine]-X1) was tested, and the “Ratio to MMAE +v” value (HCT-15; HCT-15, with verapamil) was 1x, the IC50 (HCT-15; HCT-15, with verapamil, read-out: IC50 (nM) +v) was 0.946 nM and the “Ratio to MMAE −v” value (HCT-15; HCT-15, without verapamil) was 1x. For the same molecule, the IC50 (HCT-15; HCT-15, without verapamil, read-out: IC50 (nM) −v) was 14.8 nM.
For `CC[C@@]1(O)C(=O)OCc2c1cc1n(c2=O)Cc2c-1nc1cc(F)c(C)c3c1c2[C@@H](N)CC3` [P1, Exatecan], the “Ratio to MMAE +v” value (HCT-15; HCT-15, with verapamil) was 1.833x, the “Ratio to MMAE −v” value (HCT-15; HCT-15, without verapamil) was 0.087x and the IC50 (HCT-15; Homo sapiens, HCT-15, with verapamil, read-out: IC50 (nM) +v) was 1.73 nM. For the same molecule, the IC50 (HCT-15; Homo sapiens, HCT-15, without verapamil, read-out: IC50 (nM) −v) was 1.29 nM.
In the case of `CC[C@@]1(O)C(=O)OCc2c1cc1n(c2=O)Cc2c-1nc1cc(F)c(C)c3c1c2[C@@H](NC(=O)CO)CC3` [P2, Dxd], the IC50 (HCT-15; [2]) is reported as 2.65 nM and the IC50 (HCT-15; [3]) is reported as 7 nM.
For `CC[C@@]1(O)C(=O)OCc2c1cc1n(c2=O)Cc2c-1nc1cc(F)c(C)c3c1c2[C@@H](NC(=O)COCNC(=O)CN)CC3` [P3], the “Ratio to MMAE +v” value (HCT-15; HCT-15, with verapamil) was 23.426x, the “Ratio to MMAE −v” value (HCT-15; HCT-15, without verapamil) was 3.011x and the IC50 (HCT-15; [2]) was 22.2 nM. For the same molecule, the IC50 (HCT-15; [3]) was 44.9 nM.

— patent US12605459B2, “Protein-drug conjugates comprising camptothecin analogs and methods of use thereof” (priority 2020, dated 2026)
